# Patent US12473250B2, “Molecular design of new antibiotics and antibiotic adjuvants against MCR strains” (priority 2019, dated 2025)
# Key:
# [1] = system: ACBA multi-drug resistant strains; test: Synergy of LC100 with colistin against multi-drug resistant strains (Table 5); format: cell-based, Acinetobacter baumannii
# Description: The MICs of the individual drugs and LC compound in combinations were determined using the broth microdilution technique as recommended by the CLSI whereby the two anti-microbial agents were added in an equal amount. (e.g.: 50 μL of Colistin: 50 μL of LC compounds). Diluted media containing compounds and antibiotics will be serially diluted 2-fold, and LC compounds and antibiotics alone or in combination will be assayed at fixed synergy concentration. In all cases, the lowest concentration at which no visible growth occurred was be recorded to be the MIC value of individual and combined antibacterial agents. The results were obtained after 24 hours of incubation.
# [2] = system: colistin resistant MCR (−) E. Coli strains; test: Synergy study: colistin MIC in the presence of compound; format: cell-based
# Outline: (§1)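 CLSI broth microdilution with colistin and LC compound added in equal amounts, 2-fold serial dilution, alone or combined at fixed synergy concentration. MIC taken as lowest concentration with no visible growth after 24 hours of incubation.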
# [3] = system: colistin resistant MCR (−) E. Cloacae strain 7023456439; test: as above; format: cell-based; conditions: strain 7023456439 E. Cloacae
# Outline: as §1
# [4] = system: colistin resistant MCR (+) E. Coli strains; test: as above; format: cell-based
# Outline: as §1
# [5] = system: MCR positive E. coli Clinical isolate 6083655967; format: in vivo
# Description: FIG. 21 refers to graphs showing the efficacy testing of combination of LC100 and Colistin in neutropenic mouse thigh infection model infected with MCR positive E. coli Clinical isolate 6083655967. Starting inoculum was 1.87×10^6, N=3. “Combination” refers to Colistin 10 mg/kg+LC100 50 mg/kg. Each treatment was done intraperitoneally 1 hour after infection. 6 hours after treatment, mouse thigh tissues were homogenized for viable CFU.
# The combination of colistin and antimicrobial peptide (LC100) was tested against E. coli clinical isolate MCR-positive strain 6083655967 in a neutropenic mouse thigh infection model. C57BL/6 mice were rendered neutropenic by cyclophosphamide, dosed at 150 and 100 mg kg-1 delivered on days −4 and −1 prior to infection. Bacteria were suspended in sterile saline and adjusted to a concentration of ˜1.876×10^6 CFU per infection site (100 micro-liters) and injected intramuscularly into the right thigh of five mice per treatment group. At 1 h post infection, mice received colistin ([…], i.p. n=5), LC100 (50 mg kg-1, i.p. n=5), untreated (n=5), or the combination (n=5). Mice were euthanized 6 h after infection; thigh tissue was aseptically collected, homogenized, serially diluted in PBS and plated onto solid TSA supplemented plates. Plates were incubated overnight at 37° C. and colonies were quantified to determine bacterial load.
# To evaluate the in vivo efficacy of the combination of LC100 and colistin, a neutropenic mouse thigh infection model was used. 30 mice were classed into 5 groups: control, colistin at 10 mg/kg, LC100 at 50 mg/kg, meropenem at 100 mg/kg and combination of 50 mg/kg of LC100 and 10 mg/kg of colistin. Each treatment was administered intraperitoneally 1 hour after infection. The starting inoculum was 1.87×10^6, and 6 hours after treatment, mouse thigh tissues were homogenized for viable CFU. […] As neutropenic mice were used in the study, the 1.2 log reduction in bacterial burden is due to the combination of LC100 and colistin rather than the immune system of the mouse.
structure (smiles),measurement,setting,value
CCN(CC)CCCCOc1ccc(/C=C/C(=O)c2ccc(OCCCCN(CC)CC)c(CC=C(C)C)c2O)cc1 [LC100],Colistin MIC in the presence of LC100,"[1]; strain ACBA 1010, LC 100 2 μg",<0.0975 µg/mL
same,Colistin MIC in the presence of LC100,"[1]; strain ACBA 1010, LC 100 5 μg",<0.0975 µg/mL
same,Colistin MIC in the presence of LC100,"[1]; strain ACBA 1012, LC 100 2 μg",0.39 µg/mL
same,Colistin MIC in the presence of LC100,"[1]; strain ACBA 1012, LC 100 5 μg",<0.0975 µg/mL
same,Colistin MIC in the presence of LC100,"[1]; strain ACBA 43357, LC 100 2 μg",0.39 µg/mL
same,Colistin MIC in the presence of LC100,"[1]; strain ACBA 43357, LC 100 5 μg",<0.0975 µg/mL
same,Colistin MIC in the presence of LC100,"[1]; strain ACBA ATCC 19606, LC 100 2 μg",0.195 µg/mL
same,Colistin MIC in the presence of LC100,"[1]; strain ACBA ATCC 19606, LC 100 5 μg",<0.0975 µg/mL
same,colistin level to which E. coli became sensitive in the presence of LC100,[2]; resistant bacteria without mcr-1,< 0.5 µg/mL
same,Colistin MIC in the presence of the compound,"[2]; strain 6083672926, MCR(−), compound at 2 μg",<0.0975 µg/mL
same,Colistin MIC in the presence of the compound,"[2]; strain 6083672926, MCR(−), compound at 5 μg (Table 2a: 5 ug/ml)",0.195 µg/mL
same,Colistin MIC in the presence of the compound,"[2]; strain 6083672926, MCR(−), compound at 10 μg (Table 2a: 10 ug/ml)",<0.098 µg/mL
same,Colistin MIC in the presence of the compound,"[2]; strain 6083672926, MCR(−), compound at 10 μg (Table 2a: 10 ug/ml), listed as LC 100",<0.0975 µg/mL
same,Colistin MIC in the presence of the compound,"[2]; strain 7023446108, MCR(−), compound at 2 μg",<0.0975 µg/mL
same,Colistin MIC in the presence of the compound,"[2]; strain 7023446108, MCR(−), compound at 5 μg (Table 2a: 5 ug/ml)",0.195 µg/mL
same,Colistin MIC in the presence of the compound,"[2]; strain 7023446108, MCR(−), compound at 10 μg (Table 2a: 10 ug/ml)",<0.098 µg/mL
same,Colistin MIC in the presence of the compound,"[2]; strain 7023446108, MCR(−), compound at 10 μg (Table 2a: 10 ug/ml), listed as LC 100",<0.0975 µg/mL
same,Colistin MIC in the presence of the compound,"[2]; strain 7033607097, MCR(−), compound at 2 μg",<0.0975 µg/mL
same,Colistin MIC in the presence of the compound,"[2]; strain 7033607097, MCR(−), compound at 5 μg (Table 2a: 5 ug/ml)",0.195 µg/mL
same,Colistin MIC in the presence of the compound,"[2]; strain 7033607097, MCR(−), compound at 10 μg (Table 2a: 10 ug/ml)",<0.098 µg/mL
same,Colistin MIC in the presence of the compound,"[2]; strain 7033607097, MCR(−), compound at 10 μg (Table 2a: 10 ug/ml), listed as LC 100",<0.0975 µg/mL
same,Colistin MIC in the presence of the compound,[3]; compound at 2 μg,<0.0975 µg/mL
same,Colistin MIC in the presence of the compound,[3]; compound at 5 μg (Table 2a: 5 ug/ml),0.195 µg/mL
same,Colistin MIC in the presence of the compound,[3]; compound at 10 μg (Table 2a: 10 ug/ml),<0.098 µg/mL
same,Colistin MIC in the presence of the compound,"[3]; compound at 10 μg (Table 2a: 10 ug/ml), listed as LC 100",<0.0975 µg/mL
same,Colistin MIC in the presence of LC100,"[4]; LC100 greater than 5 μg/ml, as low as",0.0975 µg/mL
same,concentration at which the compound shows synergy with colistin,[4]; against mcr-1 bacteria,2 µg/mL
same,synergy with colistin,"[4]; against mcr-1 bacteria, in words",excellent synergy
same,Colistin MIC in the presence of the compound,"[4]; strain 6075066346, MCR(+), compound at 2 μg",1.56 µg/mL
same,Colistin MIC in the presence of the compound,"[4]; strain 6075066346, MCR(+), compound at 3 μg",0.78 µg/mL
same,Colistin MIC in the presence of the compound,"[4]; strain 6075066346, MCR(+), compound at 5 μg (Table 2a: 5 ug/ml)",0.195 µg/mL
same,Colistin MIC in the presence of the compound,"[4]; strain 6075066346, MCR(+), compound at 10 μg (Table 2a: 10 ug/ml)",<0.098 µg/mL
same,Colistin MIC in the presence of the compound,"[4]; strain 6075066346, MCR(+), compound at 10 μg (Table 2a: 10 ug/ml), listed as LC 100",<0.0975 µg/mL
same,Colistin MIC in the presence of the compound,"[4]; strain 6083655967, MCR(+), compound at 2 μg",1.56 µg/mL
same,Colistin MIC in the presence of the compound,"[4]; strain 6083655967, MCR(+), compound at 3 μg",0.39 µg/mL
same,Colistin MIC in the presence of the compound,"[4]; strain 6083655967, MCR(+), compound at 5 μg (Table 2a: 5 ug/ml)",0.195 µg/mL
same,Colistin MIC in the presence of the compound,"[4]; strain 6083655967, MCR(+), compound at 10 μg (Table 2a: 10 ug/ml)",<0.098 µg/mL
same,Colistin MIC in the presence of the compound,"[4]; strain 6083655967, MCR(+), compound at 10 μg (Table 2a: 10 ug/ml), listed as LC 100",<0.0975 µg/mL
same,Colistin MIC in the presence of the compound,"[4]; strain 6103645107, MCR(+), compound at 2 μg",1.56 µg/mL
same,Colistin MIC in the presence of the compound,"[4]; strain 6103645107, MCR(+), compound at 3 μg",0.78 µg/mL
same,Colistin MIC in the presence of the compound,"[4]; strain 6103645107, MCR(+), compound at 5 μg (Table 2a: 5 ug/ml)",0.195 µg/mL
same,Colistin MIC in the presence of the compound,"[4]; strain 6103645107, MCR(+), compound at 10 μg (Table 2a: 10 ug/ml)",<0.098 µg/mL
same,Colistin MIC in the presence of the compound,"[4]; strain 6103645107, MCR(+), compound at 10 μg (Table 2a: 10 ug/ml), listed as LC 100",<0.0975 µg/mL
same,Colistin MIC in the presence of the compound,"[4]; strain 6123520276, MCR(+), compound at 2 μg",1.56 µg/mL
same,Colistin MIC in the presence of the compound,"[4]; strain 6123520276, MCR(+), compound at 3 μg",0.78 µg/mL
same,Colistin MIC in the presence of the compound,"[4]; strain 6123520276, MCR(+), compound at 5 μg (Table 2a: 5 ug/ml)",0.195 µg/mL
same,Colistin MIC in the presence of the compound,"[4]; strain 6123520276, MCR(+), compound at 10 μg (Table 2a: 10 ug/ml)",<0.098 µg/mL
same,Colistin MIC in the presence of the compound,"[4]; strain 6123520276, MCR(+), compound at 10 μg (Table 2a: 10 ug/ml), listed as LC 100",<0.0975 µg/mL
same,Colistin MIC in the presence of the compound,"[4]; strain 7013177695, MCR(+), compound at 2 μg",1.56 µg/mL
same,Colistin MIC in the presence of the compound,"[4]; strain 7013177695, MCR(+), compound at 3 μg",0.39 µg/mL
same,Colistin MIC in the presence of the compound,"[4]; strain 7013177695, MCR(+), compound at 5 μg (Table 2a: 5 ug/ml)",0.195 µg/mL
same,Colistin MIC in the presence of the compound,"[4]; strain 7013177695, MCR(+), compound at 10 μg (Table 2a: 10 ug/ml)",<0.098 µg/mL
same,Colistin MIC in the presence of the compound,"[4]; strain 7013177695, MCR(+), compound at 10 μg (Table 2a: 10 ug/ml), listed as LC 100",<0.0975 µg/mL
same,Colistin MIC in the presence of the compound,"[4]; strain 7023436560, MCR(+), compound at 2 μg",1.56 µg/mL
same,Colistin MIC in the presence of the compound,"[4]; strain 7023436560, MCR(+), compound at 3 μg",0.39 µg/mL
same,Colistin MIC in the presence of the compound,"[4]; strain 7023436560, MCR(+), compound at 5 μg (Table 2a: 5 ug/ml)",0.195 µg/mL
same,Colistin MIC in the presence of the compound,"[4]; strain 7023436560, MCR(+), compound at 10 μg (Table 2a: 10 ug/ml)",<0.098 µg/mL
same,Colistin MIC in the presence of the compound,"[4]; strain 7023436560, MCR(+), compound at 10 μg (Table 2a: 10 ug/ml), listed as LC 100",<0.0975 µg/mL
same,Colistin MIC in the presence of the compound,"[4]; strain 7023444207, MCR(+), compound at 2 μg",1.56 µg/mL
same,Colistin MIC in the presence of the compound,"[4]; strain 7023444207, MCR(+), compound at 3 μg",0.39 µg/mL
same,Colistin MIC in the presence of the compound,"[4]; strain 7023444207, MCR(+), compound at 5 μg (Table 2a: 5 ug/ml)",0.195 µg/mL
same,Colistin MIC in the presence of the compound,"[4]; strain 7023444207, MCR(+), compound at 10 μg (Table 2a: 10 ug/ml)",<0.098 µg/mL
same,Colistin MIC in the presence of the compound,"[4]; strain 7023444207, MCR(+), compound at 10 μg (Table 2a: 10 ug/ml), listed as LC 100",<0.0975 µg/mL
same,observations in treated mice,"[5]; LC100 50 mg/kg or Colistin 10 mg/kg+LC100 50 mg/kg, intraperitoneally",Abdominal distension
same,reduction in bacterial burden,"[5]; neutropenic mice, i.p. 1 hour after infection, 6 hours after treatment, colistin 10 mg/kg, LC100 50 mg/kg, meropenem 100 mg/kg, combination 50 + 10 mg/kg",cannot reduce the bacterial burden
